Patent publication EP0969089A1, “Phytase formulation” (F. HOFFMANN-LA ROCHE AG, priority 1998, dated 2000)
Where two headings read alike, the source gives them in different places.

Experiments:
A. fumigatus phytase = molecular target: T1, A. fumigatus phytase (Aspergillus fumigatus, UniProt O00092); assay type: biochemical; details: for effect on the thermostabilization of A. fumigatus phytase: polyols with more than 6 or less than 5 carbon atoms, 65 °C; for temperature at which considerable activity still being detected: dicarboxylate at 25% (12.5% final concentration in the activity assay); for increase in phytase activity measured at 37 °C: dicarboxylates; for effects on the thermostability of the protein: sodium acetate 5, 10 and 25%
T1 construct: made in house; host or cells: Hansenula polymorpha
T1 sequence (O00092 27-465): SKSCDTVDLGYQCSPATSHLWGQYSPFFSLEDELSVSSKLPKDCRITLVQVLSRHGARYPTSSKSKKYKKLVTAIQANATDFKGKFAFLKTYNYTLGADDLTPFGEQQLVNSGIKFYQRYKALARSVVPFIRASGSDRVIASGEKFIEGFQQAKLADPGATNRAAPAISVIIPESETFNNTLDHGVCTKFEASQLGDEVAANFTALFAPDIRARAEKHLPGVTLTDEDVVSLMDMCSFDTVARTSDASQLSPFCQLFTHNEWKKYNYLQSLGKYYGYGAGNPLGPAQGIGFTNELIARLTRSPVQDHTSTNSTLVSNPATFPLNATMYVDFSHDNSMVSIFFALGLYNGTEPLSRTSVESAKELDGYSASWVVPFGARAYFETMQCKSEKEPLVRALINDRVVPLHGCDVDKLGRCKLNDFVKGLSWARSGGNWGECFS
Method: (§1) After incubation of the sample for 15 mm at the desired temperature (e.g. at 60 or 65 °C for the screening of additive effects), the reaction was stopped by addition of 0.5 ml 15% trichloroacetic acid. Determination of liberated inorganic phosphate was performed by standard methods.
(§2) Disodium malonate, succinate and glutarate were dissolved at concentrations of 5, 10 and 25% and phytase activity was measured after preincubation of enzyme plus additive and substrate (see above) at the following temperatures: 37, 45, 50, 55, 60, 65, 70, 75, 80, and 85 °C. In the same way, the temperature dependence of the activity of different phytases in the presence of 25% xylitol and ribitol was tested. It should be noted that the concentration of the additives was reduced by half after substrate addition.

[1] = Solubility of polyols in assay buffer; details: at a concentration of 50% (w/w)
Method: PEGs have been dissolved at a concentration of 50% with the exception of PEGs with a molecular weight of 4000, 8000 and 10000 which were used at a concentration of 25%. For the screening of PEGs and other polyols, the preincubation and reaction temperature was chosen as 60 °C for A. nidulans and A. terreus CBS phytase, 65 °C for A. fumigatus and A. niger phytase and 75 °C for consensus phytase.

consensus phytase = test: Effect of stabilizing additives on thermostability of consensus phytase; assay type: biochemical; details: for increase of thermostability: 25% dicarboxylate
Method: as §1
as §2, with “In the same way, the temperature dependence of the activity of different phytases in the presence of 25% xylitol and ribitol was tested.” left out

A. nidulans phytase = molecular target: T2, A. nidulans phytase (Emericella nidulans, UniProt O00093); test: Effect of stabilizing additives on thermostability of A. nidulans phytase; assay type: biochemical, Aspergillus nidulans; details: 25% dicarboxylate
T2 construct: made in house; host or cells: Aspergillus niger
T2 sequence (O00093 20-463): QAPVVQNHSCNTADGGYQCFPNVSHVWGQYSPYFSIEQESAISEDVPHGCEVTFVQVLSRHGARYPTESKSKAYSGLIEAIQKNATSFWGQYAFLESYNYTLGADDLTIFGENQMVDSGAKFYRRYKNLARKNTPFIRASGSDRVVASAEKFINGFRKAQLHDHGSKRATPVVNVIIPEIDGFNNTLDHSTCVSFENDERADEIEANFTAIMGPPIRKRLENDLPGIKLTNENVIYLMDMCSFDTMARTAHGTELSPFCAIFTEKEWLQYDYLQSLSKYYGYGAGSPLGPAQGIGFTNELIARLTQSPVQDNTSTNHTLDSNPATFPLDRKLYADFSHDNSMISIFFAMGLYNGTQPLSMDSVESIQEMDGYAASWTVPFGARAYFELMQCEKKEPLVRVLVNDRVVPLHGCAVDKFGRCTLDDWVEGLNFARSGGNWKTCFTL
Method: as §1, §2

A. terreus CBS phytase = molecular target: T3, A. terreus CBS phytase (Aspergillus terreus, UniProt O00100); test: Effect of stabilizing additives on thermostability of A. terreus CBS phytase; assay type: biochemical; details: 25% dicarboxylate
T3 construct: made in house; host or cells: Hansenula polymorpha
T3 sequence (O00100 20-466): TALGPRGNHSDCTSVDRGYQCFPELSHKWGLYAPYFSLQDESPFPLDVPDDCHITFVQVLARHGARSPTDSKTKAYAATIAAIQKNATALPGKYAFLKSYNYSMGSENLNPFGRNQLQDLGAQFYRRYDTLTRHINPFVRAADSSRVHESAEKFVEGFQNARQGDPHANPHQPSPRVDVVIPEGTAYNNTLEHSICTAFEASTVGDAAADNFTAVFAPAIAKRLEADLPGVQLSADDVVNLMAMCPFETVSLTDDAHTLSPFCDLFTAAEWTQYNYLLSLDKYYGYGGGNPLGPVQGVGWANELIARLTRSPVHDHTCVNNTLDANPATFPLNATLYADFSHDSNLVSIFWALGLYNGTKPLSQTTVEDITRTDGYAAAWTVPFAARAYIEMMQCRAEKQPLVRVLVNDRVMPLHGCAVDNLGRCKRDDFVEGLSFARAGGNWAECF
Method: as §1, §2

A. niger phytase = molecular target: T4, A. niger phytase (Aspergillus niger, UniProt P34752); test: Effect of stabilizing additives on thermostability of A. niger phytase; assay type: biochemical; details: 25% dicarboxylate
T4 construct: made in house; host or cells: Aspergillus niger
T4 sequence (P34752 24-467): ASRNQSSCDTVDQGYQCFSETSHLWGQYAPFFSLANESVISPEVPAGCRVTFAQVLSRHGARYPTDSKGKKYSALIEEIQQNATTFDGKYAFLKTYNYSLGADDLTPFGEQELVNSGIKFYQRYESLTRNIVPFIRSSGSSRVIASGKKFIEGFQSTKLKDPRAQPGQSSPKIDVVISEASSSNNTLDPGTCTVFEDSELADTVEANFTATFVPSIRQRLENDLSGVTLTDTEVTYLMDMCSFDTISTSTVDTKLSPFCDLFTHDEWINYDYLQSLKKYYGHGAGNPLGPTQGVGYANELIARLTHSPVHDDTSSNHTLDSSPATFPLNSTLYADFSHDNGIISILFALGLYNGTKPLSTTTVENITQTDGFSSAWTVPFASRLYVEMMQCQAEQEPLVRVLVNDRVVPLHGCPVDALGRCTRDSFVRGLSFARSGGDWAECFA
Method: as §1, §2

[2] = in the presence of 50% solutions of polyol
[3] = polyol at a concentration of 12.5%
[4] = polyol at a concentration of 25%

## OC[C@@H](O)[C@@H](O)CO [erythritol]
A. fumigatus phytase
  effect on the thermostabilization of A. fumigatus phytase: inferior effect
[1]
  solubility in 0.2 M sodium acetate, pH 5.0: not soluble

## OCC(O)CO [glycerol]
A. fumigatus phytase
  effect on the thermostabilization of A. fumigatus phytase: inferior effect

## O=C(O)CC(=O)O [malonate, disodium malonate]
A. fumigatus phytase
  temperature at which considerable activity still being detected: 70 °C
  increase in phytase activity measured at 37 °C: approximately 4 fold
Consensus phytase
  increase of thermostability: 5-15 °C
A. nidulans phytase
  increase of thermostability: 5-15 °C
A. terreus CBS phytase
  increase of thermostability: 5-15 °C
A. niger phytase
  increase of thermostability: 5-15 °C

## O=C[C@@H](O)[C@@H](O)[C@H](O)[C@H](O)[C@H](O)CO [mannoheptose]
A. fumigatus phytase
  effect on the thermostabilization of A. fumigatus phytase: inferior effect
[1]
  solubility in 0.2 M sodium acetate, pH 5.0: not soluble

## O=C(CO)[C@@H](O)[C@@H](O)[C@H](O)[C@H](O)CO [mannoheptulose]
A. fumigatus phytase
  effect on the thermostabilization of A. fumigatus phytase: inferior effect
[1]
  solubility in 0.2 M sodium acetate, pH 5.0: not soluble

## OC[C@@H](O)[C@@H](O)[C@@H](O)CO [ribitol]
A. fumigatus phytase; in the presence of 25% polyol
  specific activities measured at 65 °C: 11 U*(mg protein)^-1
A. fumigatus phytase; [2]
  specific activities measured at 65 °C: 51 U*(mg protein)^-1
A. fumigatus phytase; [3]
  specific activity measured at 65 °C: 11-12 U/mg
A. fumigatus phytase; [4]
  specific activity measured at 65 °C: 51-90 U/mg

## CC(=O)O [sodium acetate]
A. fumigatus phytase
  effects on the thermostability of the protein: only minor effects
A. fumigatus phytase; listed as Sodium acetate
  effects on the thermostability of the protein: no effect

## OC[C@@H](O)[C@@H](O)[C@H](O)[C@@H](O)CO [sorbitol]
A. fumigatus phytase; in the presence of 25% polyol
  specific activities measured at 65 °C: 11 U*(mg protein)^-1
A. fumigatus phytase; [2]
  specific activities measured at 65 °C: 74 U*(mg protein)^-1

## O=C(O)CCC(=O)O [succinate, disodium succinate]
A. fumigatus phytase
  temperature at which considerable activity still being detected: 65 °C
  increase in phytase activity measured at 37 °C: 2 fold
Consensus phytase
  increase of thermostability: 5-15 °C
A. nidulans phytase
  increase of thermostability: 5-15 °C
A. terreus CBS phytase
  increase of thermostability: 5-15 °C
A. niger phytase
  increase of thermostability: 5-15 °C

## OC[C@@H](O)[C@H](O)[C@@H](O)CO [xylitol]
A. fumigatus phytase; in the presence of 25% polyol
  specific activities measured at 65 °C: 21 U*(mg protein)^-1
A. fumigatus phytase; [2]
  specific activities measured at 65 °C: 90 U*(mg protein)^-1
A. fumigatus phytase; [3]
  specific activity measured at 65 °C: 11-12 U/mg
A. fumigatus phytase; [4]
  specific activity measured at 65 °C: 51-90 U/mg
Consensus phytase; xylitol 50%
  increase of temperature optimum: 10-15 °C
